Melting point data for 90 molecules are collected here from a melting point compilation (Tetko et al.; mined from patent text by program, amines drawn as free bases though some values may be those of a salt).

Some results are limits rather than exact numbers.

As for `Oc1cccc2c1CC1C(C2)C1(Cl)Cl` (stereo not given), the melting point was in the range of 89 to 93 °C. On to `N#Cc1ccn(O)c1-c1ccc(Cl)cc1`, for which the melting point was in the range of 148 to 150 °C. The same measure for `Cc1nc2cc(OCCCN3CC=C(c4c[nH]c5ccc(C#N)cc45)CC3)ccc2s1`: 263 to 265 °C; for `CC(C)c1nc(Cl)c([N+](=O)[O-])c(Cl)n1`: 32 °C; for `CNC(=O)c1ccccc1Nc1nc(Nc2ccc3c(c2)CCCCN3C)ncc1Cl`: 170 to 172 °C.

In turn, `O=C(O)Cc1ccccc1SCc1cc(F)ccc1F` yielded a melting point of 106 to 108 °C. Take `COc1cc(OC)c2c(=O)[nH]c(-c3ccc(CN4CCOCC4)cc3)nc2c1`: the melting point fell in the range of 206 to 208 °C. On to `CCOc1cc2ncc(C#N)c(Nc3cccc(F)c3)c2cc1OCC`, for which the melting point lay in the range of 192 to 195 °C. With `O=c1ccc(S(=O)(=O)n2cccc2)n[nH]1`, the melting point fell in the range of 140 to 145 °C. In turn, `OCc1ccnc2cc(Cl)ccc12` registered a melting point of 160 °C. The molecule `O=C1N=C(N2CCCCCC2)SC1=Cc1cccc(-c2ccc(O)c(C34CC5CC(CC(C5)C3)C4)c2)c1` registered a melting point of 321 to 324 °C. `COc1ccc2c(c1)C(CCNC(=O)C(F)(F)F)C(c1ccccc1)C2` (stereo not given) had a melting point of 109 to 111 °C.

`NCCCCC1Cc2ccc(C3=NNC(=O)CC3)cc2C1` (stereo not given): the melting point lay in the range of 153 to 155 °C. On to `COc1ccc(-c2nc3cnncc3[nH]2)c(OCC#N)c1`, for which the melting point was 268 °C.

In turn, `Cc1nnc(-c2ccc3occ(-c4ccc(S(C)=O)c(OC(F)(F)F)c4)c3c2)o1` (stereo not given) registered a melting point of 182 to 183 °C. `O=C(Cc1cccc2ccccc12)N[C@H]1C[C@H](C(=O)O)Nc2cc(Cl)cc(Cl)c21` (relative stereo) displayed a melting point of 257 to 258 °C. Regarding `O=C1c2c(Br)cccc2-n2cnc(-c3noc(CCl)n3)c2[C@@H]2CCN12`, the melting point lay in the range of 210 to 211 °C. Molecule `O=C(O)C=Cc1cccc2cc[nH]c12` showed a melting point of 179 to 181 °C. The molecule `COc1ccc(S(=O)(=O)N(Cc2cccnc2)c2c(C(=O)O)cc(C)cc2-c2cccs2)cc1` showed a melting point of 67 °C.

As to `O=c1oc2ccc(Cl)cc2c(O)c1CCO`, the melting point lay in the range of 185 to 186 °C.

Consider `CC(C)c1nccc2c(CO)cccc12`, for which the melting point is 120 to 121 °C. As for `O=C(O)c1cccc2nc(C(F)(F)C(F)(F)C(F)(F)F)n(Cc3ccccc3Cl)c12`, the melting point fell in the range of 213 to 214 °C. Turning to `Cc1sc(CCc2ccc(C=O)cc2)nc1-c1ccccc1`, the melting point lay in the range of 66 to 67 °C. `C#Cc1ccc(Oc2cc(C(=O)Cl)cc(C(=O)Cl)c2)cc1`: the melting point was in the range of 68 to 69 °C. The same measure for `CC(c1ccccc1)c1ccc(N)c([N+](=O)[O-])c1` (stereo not given): 96 to 98 °C; for `CC(C)c1cccc(C(C)C)c1NC(=O)CN(CC1(Nc2ccccc2)CCCCC1)C(=O)OC(C)(C)C`: 125 to 127 °C. For the molecule `COc1cc(COc2ccc3nc(NC(=O)OCC(O)CO)cn3n2)cc(OC)c1OC` (stereo not given), the melting point lay within 175 to 176 °C.

For `CC(=O)Nc1ccc(-c2ccc3c(c2)C(C)(C)OC(=O)N3)cc1F`, the melting point lay in the range of 245 to 247 °C. `C1CNCCCNCCCNCCCNC1` gave a melting point of 84 to 86 °C. Turning to `COc1c(C)cc2c(c1C)C[C@@H]1c3cc(C(C)C)ccc3N[C@H]21` (relative stereo), the melting point was found to be 106 °C. For `CCOC(=O)Nc1c(C(=O)OCC)oc2cc(OCc3ccccc3)ccc12`, the melting point worked out at 100 °C. The same measure for `COc1cc2c(cc1O)C(=O)C1c3c(cc(OC(C)C)c(OC)c3-2)CCN1C` (stereo not given): 240 to 242 °C. With `CC(C)(C)c1cc(-c2n[nH]c(=S)[nH]2)cc(C(C)(C)C)c1O`, the melting point turned out to be 271 °C. Molecule `CC(=O)OCC(=O)Nc1nc2c(Cl)cccc2s1` came in with a melting point of 205 to 207 °C. Molecule `Cc1ccc([N+](=O)[O-])c(C)c1C(=O)O` had a melting point of 109 to 112 °C. Turning to `Cc1ncnc(N)c1C=O`, the melting point was 158 to 160 °C. Molecule `Cn1nnnc1C=C(c1ccc(F)cc1)c1ccc(F)cc1` yielded a melting point of 169 to 171 °C. Turning to `Cc1ccnc(NC(c2ccc(C(F)(F)F)cc2)c2ccc3cccnc3c2O)c1` (stereo not given), the melting point is 104 to 107 °C. `NC(=O)c1sc2nccc(N3CCCC3)c2c1N` registered a melting point of 275 to 283 °C. Take `CC(=O)NCc1nc2c(N)nc(C)c(C)c2n1CC(C)C`: the melting point fell in the range of 162 to 164 °C. On to `O=C(NCO)N1CC(Oc2cccc(C(F)(F)F)c2)C1`, for which the melting point lay within 113 to 115 °C. In the case of `O=C(O)CC1(CNC(=O)c2ccc(CO[N+](=O)[O-])cc2)CCCCC1` it was 127 to 128 °C.

For `O=C(NCCc1cccc2ccccc12)C1CC1`, the melting point was 117 to 118 °C. The same measure for `Cc1nc(Nc2ccccc2)sc1-c1ccnc(Nc2ccc(N3CCN(Cc4ccccc4)CC3)cc2)n1`: 227 to 229 °C. As for `O=C(NCCCCCCOC(=O)Oc1ccc([N+](=O)[O-])cc1)OC1CCN(C(=O)OCc2ccccc2)CC1`, the melting point lay in the range of 78 to 80 °C. In the case of `CCOc1cccc(CNC(=O)[C@H]2N(C(=O)[C@@H](O)[C@H](Cc3ccccc3)NC(=O)c3cccc(O)c3C)CSC2(C)C)c1`, the melting point was 105 to 107 °C. Consider `OCc1cn(-c2ccc3ncccc3c2)cn1`, for which the melting point lay within 183 to 187 °C. The molecule `Clc1ccc(CN2CC=C(/C=C/c3ccc4[nH]ccc4c3)CC2)cc1` registered a melting point of 165 °C. In the case of `C[C@@H](n1cnc2c(Cl)cccc2c1=O)[C@](O)(Cn1cncn1)c1ccc(F)cc1F` it was 110 to 113 °C.

`CCC(C#N)(C#N)Cc1ccc(Cl)cc1` gave a melting point of 70.9 °C. The same measure for `O=CNC1=NN(c2ccccc2)C(c2ccc(Cl)cc2)C1` (stereo not given): 135 to 136 °C. As for `CNN(NC)C(=O)Sc1cc(C)ccc1C(=O)OC`, the melting point lay in the range of 79.4 to 80 °C.

The molecule `Cn1cc(CS(C)(=O)=O)c(=O)c2sccc21` returned a melting point of 220 to 223 °C. The molecule `ON=C(Cl)c1ccccc1` showed a melting point of 50 to 51 °C. As for `N#Cc1ccc(CC(NC(=O)OCc2ccccc2)C(=O)Nc2cccc(C(=O)NCCC(=O)OCc3ccccc3)c2)cc1` (racemic), the melting point fell in the range of 145 to 146 °C. Consider `CN(C)CCOc1ccc2[nH]c(C(=O)N3CC(CCl)c4c3cc(N)c3ccccc43)cc2c1` (stereo not given), for which the melting point is greater than 250 °C.

With `O=C(Nc1ccccn1)Nc1cnns1`, the melting point amounted to 227 °C. Molecule `Cc1cc(=O)n(-c2c(Cl)cc(C(F)(F)F)cc2Cl)[nH]1` showed a melting point of 174 to 175 °C. With `NC1=NS(=O)N=C1NCCCNc1ccc(Br)cn1` (stereo not given), the melting point was 215 to 216 °C. For the molecule `O=C(NCCO)c1cccc(-c2cccc3c2OC(Cc2cccc(C(F)(F)F)c2)C3)c1` (stereo not given), the melting point lay within 161 to 162 °C. Molecule `O=C(O)Cc1cc(OCc2cccc(Oc3ccccc3)c2)ccc1Nc1c(Cl)cccc1Cl` came in with a melting point of 116 to 117 °C. The molecule `CC(=O)Nc1ccc(CNc2n[nH]c(N=CN(C)C)c2C#N)cc1` had a melting point of 206 to 211 °C. In the case of `COC(=O)c1ccc(O)c(O)c1O`, the melting point came to 221 °C.

`NC(=O)CSC(=O)c1ccco1` yielded a melting point of 126 to 128 °C. In the case of `COc1ccc(NC(=O)c2ccc(F)c(F)c2)cc1NS(=O)(=O)CCl` it was 191 to 193 °C; in that of `CC(=O)N1CCCC(=O)c2ccc(Cl)cc2C(c2ccccc2)CC1=O` (stereo not given), 184 to 185 °C; in that of `COc1ccc2c(c1)N(CCNC(C)=O)CCO2`, 107 to 108 °C.

Consider `COc1ccc(N2CCN(Cc3coc4ccccc34)CC2)cc1`, for which the melting point fell in the range of 110 to 112 °C. The same measure for `Cc1cccc(-n2nc(C)c3c(=O)c4cc(F)c(F)cc4[nH]c32)n1`: 301 to 302 °C; for `O=Cc1cc2ccc3c4ccccc4ccc3c2s1`: 209 to 210 °C. Molecule `Cc1c[nH]c(C)c1-c1nc2ccc(C(=O)c3ccccc3)cc2[nH]1` came in with a melting point of 207 to 214 °C. `CCOC(=O)C1=C(C)NC(C(OCC)OCC)=C(C(=O)OCC)C1c1ccccc1Cl` (stereo not given) came in with a melting point of 75 to 77 °C. `Cc1cc(C2(C(F)(F)F)CC(n3cncn3)=NO2)ccc1NC(=O)c1cccc(I)c1C(=O)NC(C)C` (stereo not given) showed a melting point of 131 to 133 °C. On to `CC(=O)C=C1C=C(C(C)(C)C)C(=O)C(C(C)(C)C)=C1`, for which the melting point lay in the range of 70 to 72 °C. `O=C1CCC(c2ccc(NC(=O)C3CC3(Cl)Cl)cc2)=NN1` (stereo not given) came in with a melting point of 267 to 268 °C. For `CCOC(=O)C1=COc2cc(C(C)(C)C)c(OC(C)=O)cc2O1`, the melting point came out at 144 °C. With `CCOC(=O)C=CN1C(C)(C)CC(N(C=O)CCCCCCN(C=O)C2CC(C)(C)N(C=CC(=O)OCC)C(C)(C)C2)CC1(C)C`, the melting point was determined as 172 °C. The molecule `O=C(NCc1ccccc1)c1ccnc(NC(=O)C2CCCC2)c1` yielded a melting point of 55 to 57 °C. Regarding `NS(=O)(=O)OCCN1CCCC1=O`, the melting point lay in the range of 110 to 112 °C. Take `CCCC(=O)c1cnc2c(O)cccc2c1Nc1ccc(F)cc1C`: the melting point fell in the range of 121 to 122 °C. On to `CCCCCCCCNC1=NS(=O)(=O)c2cnccc2N1`, for which the melting point lay in the range of 176 to 179 °C. `CCSC1=NCC(=O)N1c1ccccc1` registered a melting point of 79 to 81 °C. In turn, `COc1ccc2c(c1)CCc1c(Cl)cccc1S2` had a melting point of 73 to 74 °C. As to `CC(C)c1c(C=O)c(-c2ccc(F)cc2)n2c1CCCC2`, the melting point was 100 to 101 °C. The same measure for `O=C(O)c1cc(Cl)c(Cl)cc1C(=O)Nc1cccc(-c2ccnc3c(C(=O)c4cccs4)cnn23)c1`: greater than 270 °C; for `CC(C)(C)c1cc(Oc2ccc([N+](=O)[O-])c(O)c2)ccc1Oc1ccc([N+](=O)[O-])c(O)c1`: 156 to 158 °C.

The molecule `CN(Cc1ccc([N+](=O)[O-])cc1)Cc1nc(-c2cc(C(C)(C)C)c(O)c(C(C)(C)C)c2)cs1` gave a melting point of 111 to 112 °C. Molecule `O=C(CC1(S(=O)c2ccc(Oc3ccc(F)cc3)cc2)CCOCC1)NO` (stereo not given) had a melting point of 120 °C. As to `COC(=O)c1ccc(Oc2ccc([N+](=O)[O-])cc2C(=O)OC)cc1`, the melting point was in the range of 103 to 105 °C. Take `CCn1c(=O)c2cnn3c2n(c1=O)CC=C3c1cccc(C(F)(F)F)c1`: the melting point fell in the range of 161 to 163 °C.
